{
  "source": "patent US20070254038A1",
  "about": "“Microspheroidal Controlled Release Of Biomolecules” (The Trustees of the University of Pennsylvania, priority 2006, published 2007)",
  "experiment": "Incorporation of vancomycin into acid-catalyzed (AC) and acid-base catalyzed (ABC) sols: clear vs cloudy (precipitation)",
  "assay_type": "physicochemical",
  "experimental": "TEOS (10 ml) and 0.1 M HCl (2.4 ml), with or without the addition of deionized water, were mixed using a magnetic stirrer until a one-phase sol was formed. The water/TEOS molar ratio varied from 0 to 10. Pharmaceutical agents were then added to the sol. For example, Sols with 20 mg/g and 30 mg/g of vancomycin (drug to SiO2 ratio), and sols with 50 mg/g and 80 mg/g of bupivacaine per gram SiO2 were made by adding corresponding amounts of the drug. The sol containing added pharmaceutical agents was mixed for 30 minutes at 660 rpm and was then allowed to stand for 15 minutes. Subsequently, 0.08 M NH4OH (2.2-2.4 ml) was added dropwise to the sol, which was stirred at 660 rpm targeting a final pH of about 5.5. Under these conditions, the time to gelation varied from about 20 and 40 minutes. Upon mixing, the sol was added dropwise into vegetable oil stirred at speeds between 220 and 440 rpm and microspheres precipitated to the bottom of the beaker. Microspheres were filtered through a 70 μm nylon microporous filter and then rinsed with DI water and alcohol. The microspheres were left to dry overnight in a laminar flow hood.\nVancomycin (vancomycin-HCl; Abbott Labs, Chicago, Ill.) dissolved in water at 100 mg/ml was used for incorporation into the sols. Bupivacaine (Spectrum, New Brunswick, N.J.) dissolved in methanol at 70 mg/ml was also used for incorporation into the sols.\nThe effect of water content on the incorporation of vancomycin into the sol was studied by using either “water-free” (no additional water added other than that contained in the aqueous HCl solution) acid-catalyzed sols or sols with added water/TEOS molar ratios (R) of 5, 6, 8, and 10. […] When water was added at R=4, low doses of vancomycin such as 16.7 mg/g SiO2 could be added to the acid-catalyzed sol.",
  "note": "“Also recorded” adds a separate entry of the source.",
  "data": [
    {"smiles": "CN[C@H](CC(C)C)C(=O)N[C@H]1C(=O)N[C@@H](CC(N)=O)C(=O)N[C@H]2C(=O)N[C@H]3C(=O)N[C@H](C(=O)N[C@H](C(=O)O)c4cc(O)cc(O)c4-c4cc3ccc4O)[C@H](O)c3ccc(c(Cl)c3)Oc3cc2cc(c3O[C@@H]2O[C@H](CO)[C@@H](O)[C@H](O)[C@H]2O[C@H]2C[C@](C)(N)[C@H](O)[C@H](C)O2)Oc2ccc(cc2Cl)[C@H]1O", "note": "[Vancomycin, vancomycin]", "values": [
      {"measurement": "appearance of sol on incorporation of vancomycin", "setting": "water-free AC sol, vancomycin loading 16.7 mg/g", "value": "cloudy"},
      {"measurement": "appearance of sol on incorporation of vancomycin", "setting": "water/TEOS R=4, ABC sol (after base), loading 16.7 mg/g", "value": "precipitation of vancomycin was seen; also recorded: cloudy"},
      {"measurement": "appearance of sol on incorporation of vancomycin", "setting": "water/TEOS R=4, AC sol, loading 16.7 mg/g", "value": "clear"},
      {"measurement": "appearance of sol on incorporation of vancomycin", "setting": "water/TEOS R=5, ABC sol (after base), loading 28 mg/g", "value": "vancomycin precipitation was observed; also recorded: cloudy"},
      {"measurement": "appearance of sol on incorporation of vancomycin", "setting": "water/TEOS R=5, ABC sol, loading 16.7 mg/g", "value": "clear"},
      {"measurement": "appearance of sol on incorporation of vancomycin", "setting": "water/TEOS R=5, ABC sol, loading 22.2 mg/g", "value": "clear"},
      {"measurement": "appearance of sol on incorporation of vancomycin", "setting": "water/TEOS R=5, AC sol, loading 16.7 mg/g", "value": "clear"},
      {"measurement": "appearance of sol on incorporation of vancomycin", "setting": "water/TEOS R=5, AC sol, loading 22.2 mg/g", "value": "clear"},
      {"measurement": "appearance of sol on incorporation of vancomycin", "setting": "water/TEOS R=5, AC sol, loading 28 mg/g", "value": "clear"},
      {"measurement": "precipitation after the addition of the drug and base", "setting": "water/TEOS R=5, doses up to 20 mg/g SiO2", "value": "no precipitation was observed"},
      {"measurement": "appearance of sol on incorporation of vancomycin", "setting": "water/TEOS R=8, ABC sol, loading 22.2 mg/g", "value": "clear"},
      {"measurement": "appearance of sol on incorporation of vancomycin", "setting": "water/TEOS R=8, ABC sol, loading 33 mg/g", "value": "clear"},
      {"measurement": "appearance of sol on incorporation of vancomycin", "setting": "water/TEOS R=8, AC sol, loading 22.2 mg/g", "value": "clear"},
      {"measurement": "appearance of sol on incorporation of vancomycin", "setting": "water/TEOS R=8, AC sol, loading 33 mg/g", "value": "clear"},
      {"measurement": "appearance of sol on incorporation of vancomycin", "setting": "water/TEOS R=10, ABC sol, loading 22.2 mg/g", "value": "clear"},
      {"measurement": "appearance of sol on incorporation of vancomycin", "setting": "water/TEOS R=10, AC sol, loading 22.2 mg/g", "value": "clear"},
      {"measurement": "incorporation of higher loads into the sol", "setting": "water/TEOS ratios 8 and above, load such as 28 mg/g SiO2", "value": "successfully incorporated"}
    ]}
  ]
}
